Measured values reported in PubChem BioAssay (NCI).
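Each compound was tested at five concentrations against cells in 96-well plates for 48 hours. Abbreviation: GI50, concentration required for 50% inhibition of growth. TGI marks complete inhibition of growth.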

How the values were obtained:
Experiment in all cases: growth of human tumour cells (NCI), 48 h; in the data active = GI50 below about 0.43 µM; inactive = the rest
[1] = tested on: MALME-3M melanoma
[2] = tested on: DU-145 prostate
[3] = tested on: IGROV1 ovarian
[4] = tested on: BT-549 breast
[5] = tested on: UO-31 renal
[6] = tested on: PC-3 prostate
[7] = tested on: SNB-75 CNS
[8] = tested on: SK-MEL-5 melanoma
[9] = tested on: OVCAR-8 ovarian
[10] = tested on: RPMI-8226 leukemia
[11] = tested on: SF-295 CNS
[12] = tested on: SN12C renal
[13] = tested on: A498 renal
[14] = tested on: MDA-MB-435
[15] = tested on: OVCAR-4 ovarian
[16] = tested on: NCI-H23 lung
[17] = tested on: SK-MEL-28 melanoma
[18] = tested on: CAKI-1 renal
[19] = tested on: HL-60(TB) leukemia
[20] = tested on: ACHN renal
[21] = tested on: UACC-62 melanoma
[22] = tested on: HOP-62 NSCLC
[23] = tested on: OVCAR-3 ovarian
[24] = tested on: NCI-H226 lung
[25] = tested on: SR leukemia
[26] = tested on: HS 578T breast
[27] = tested on: COLO 205 colon
[28] = tested on: 786-0 renal
[29] = tested on: MDA-MB-231 breast
[30] = tested on: HCC-2998 colon
[31] = tested on: NCI-H522 lung
[32] = tested on: EKVX NSCLC
[33] = tested on: HOP-92 NSCLC
[34] = tested on: LOX IMVI melanoma
[35] = tested on: RXF 393 renal
[36] = tested on: NCI-H460 lung
[37] = tested on: SF-539 CNS
[38] = tested on: UACC-257 melanoma
[39] = tested on: TK-10 renal
[40] = tested on: KM12 colon
[41] = tested on: SW-620 colon
[42] = tested on: K-562 leukemia
[43] = tested on: A549 NSCLC
[44] = tested on: U251 CNS
[45] = tested on: NCI/ADR-RES ovarian
[46] = tested on: OVCAR-5 ovarian
[47] = tested on: M14 melanoma
[48] = tested on: SF-268 CNS
[49] = tested on: SK-MEL-2 melanoma
[50] = tested on: HCT-116 colon
[51] = tested on: SNB-19 CNS
[52] = tested on: MCF7 breast
[53] = tested on: T-47D breast
[54] = tested on: HT29 colon
[55] = tested on: HCT-15 colon
[56] = tested on: SK-OV-3 ovarian
[57] = tested on: MOLT-4 leukemia
[58] = tested on: CCRF-CEM leukemia

COc1cc2cc(Oc3ccc(NC(=O)Nc4ccc(Cl)c(Cl)c4)cc3)c(C)nc2cc1OC
15.6 µM: TGI [41]
6.5 µM: TGI [27]
16.8 µM: TGI [14]
6.54 µM: TGI [49]
7.72 µM: TGI [1]
9.18 µM: TGI [39]
34.3 µM: TGI [46]
> 100 µM: TGI [30] | TGI [42] | TGI [48] | TGI [55]
22.8 µM: TGI [57]
10.1 µM: TGI [36] | TGI [53]
6.08 µM: TGI [11]
15.9 µM: TGI [16]
8.3 µM: TGI [15]
5.13 µM: TGI [6]
17.1 µM: TGI [2]
13.4 µM: TGI [40]
11.7 µM: TGI [4]
12.6 µM: TGI [5]
46.1 µM: TGI [3]
17.7 µM: TGI [28]
inactive: GI50 [1] 3.02 µM | GI50 [2] 4.27 µM | GI50 [3] 5.61 µM | GI50 [4] 2.4 µM | GI50 [5] 3.44 µM | GI50 [6] 1.53 µM | GI50 [7] 2.33 µM | GI50 [8] 2.58 µM | GI50 [9] 3.54 µM | GI50 [10] 1.62 µM | GI50 [11] 1.96 µM | GI50 [12] 3.39 µM | GI50 [13] 1.95 µM | GI50 [14] 3.09 µM | GI50 [15] 2.67 µM | GI50 [16] 3.36 µM | GI50 [17] 3.77 µM | GI50 [18] 2.12 µM | GI50 [19] 2.76 µM | GI50 [20] 3 µM | GI50 [21] 3.33 µM | GI50 [22] 3.55 µM | GI50 [23] 2.34 µM | GI50 [24] 3.12 µM | GI50 [25] 3.1 µM | GI50 [26] 3.54 µM | GI50 [27] 2.75 µM | GI50 [28] 3.64 µM | GI50 [29] 2.46 µM | GI50 [30] 5.54 µM | GI50 [31] 1.74 µM | GI50 [32] 2.36 µM | GI50 [33] 2.04 µM | GI50 [34] 3.45 µM | GI50 [35] 4.28 µM | GI50 [36] 2.46 µM | GI50 [37] 5.18 µM | GI50 [38] 2.31 µM | GI50 [39] 3.46 µM | GI50 [40] 3.22 µM | GI50 [41] 4.24 µM | GI50 [42] 3.33 µM | GI50 [43] 1.64 µM | GI50 [44] 2.19 µM | GI50 [45] 2.6 µM | GI50 [46] 10.1 µM | GI50 [47] 2.56 µM | GI50 [48] 8.23 µM | GI50 [49] 3 µM | GI50 [50] 2.26 µM | GI50 [51] 4.26 µM | GI50 [52] 2.89 µM | GI50 [53] 2.7 µM | GI50 [54] 2.34 µM | GI50 [55] 3.56 µM | GI50 [56] 7.56 µM | GI50 [57] 3.02 µM | GI50 [58] 2.38 µM
4.88 µM: TGI [33]
12.1 µM: TGI [20]
8.68 µM: TGI [24]
10.5 µM: TGI [47] | TGI [50]
14.7 µM: TGI [17]
12 µM: TGI [29]
7.61 µM: TGI [43]
7.93 µM: TGI [13]
9.51 µM: TGI [32]
14 µM: TGI [58]
11.9 µM: TGI [22]
8.09 µM: TGI [8]
13.8 µM: TGI [52]
14.6 µM: TGI [34]
6.19 µM: TGI [23]
12.9 µM: TGI [9]
24 µM: TGI [51]
8.28 µM: TGI [7]
26.4 µM: TGI [56]
6.75 µM: TGI [19]
6.28 µM: TGI [38]
4.89 µM: TGI [54]
6.65 µM: TGI [18]
16.9 µM: TGI [45]
9.68 µM: TGI [26]
22.3 µM: TGI [37]
16.7 µM: TGI [35]
5.73 µM: TGI [10]
10.3 µM: TGI [25]
7.26 µM: TGI [44]
19.2 µM: TGI [21]
8.43 µM: TGI [31]
20.5 µM: TGI [12]

CNc1ncc(-c2nnnn2-c2ccccc2)c(CN(C)C)n1
> 100 µM: TGI [1] | TGI [2] | TGI [3] | TGI [4] | TGI [5] | TGI [6] | TGI [7] | TGI [8] | TGI [9] | TGI [10] | TGI [11] | TGI [12] | TGI [13] | TGI [14] | TGI [16] | TGI [17] | TGI [18] | TGI [19] | TGI [20] | TGI [21] | TGI [22] | TGI [23] | TGI [24] | TGI [25] | TGI [26] | TGI [27] | TGI [28] | TGI [29] | TGI [30] | TGI [31] | TGI [32] | TGI [33] | TGI [34] | TGI [35] | TGI [36] | TGI [37] | TGI [38] | TGI [39] | TGI [40] | TGI [41] | TGI [42] | TGI [43] | TGI [44] | TGI [45] | TGI [46] | TGI [47] | TGI [48] | TGI [49] | TGI [50] | TGI [51] | TGI [52] | TGI [53] | TGI [54] | TGI [55] | TGI [56] | TGI [57] | TGI [58]
